In paper PMC3057164, “Caffeoylquinic Acids Are Major Constituents with Potent Anti-Influenza Effects in Brazilian Green Propolis Water Extract” (Evidence-based Complementary and Alternative Medicine : eCAM, 2011):
Read-outs that look alike come from different tables or passages of the source.

Key:
[1] = test system: influenza A virus strain A/WSN/33 (H1N1); test: microbe, parasite or virus in culture; type: cell-based; details: for EC50: Influenza A virus, MDCK, 48 h
MDCK cells = test: Cytotoxicity assay (WST-8) with no viral infection; details: 300 μg/mL, uninfected MDCK cells, Figure 3
influenza virus = type: cell-based; details: 5 μg/mL, influenza virus-infected MDCK cells, data not shown

Row | Compound | Effect on cell survival rate of virus-infected cells (effective / ineffective) [1] | EC50 [1] [µM] | other results
1 | O=C(/C=C/c1ccc(O)c(O)c1)O[C@@H]1C[C@](O)(C(=O)O)C[C@@H](OC(=O)/C=C/c2ccc(O)c(O)c2)[C@H]1OC(=O)/C=C/c1ccc(O)c(O)c1 [3,4,5-Tricaffeoylquinic acid, 3,4,5-tricaffeoylquinic acid] | effective | 115 | Cell survival rate of infected cells at 300 μg/mL [1]: dropped to nearly zero; Effect on cell survival of infected cells at 100 μg/mL [1]: effective
2 | COc1ccc(-c2oc3cc(O)cc(O)c3c(=O)c2O)cc1 [kemferide] | did not have any cell surviving activity |  | 
3 | CC(C)=CCc1cc(/C=C/C(=O)O)cc(CC=C(C)C)c1O [artepillin C] | did not have any cell surviving activity |  | 
4 | O=C(O)/C=C/c1ccc(O)c(O)c1 [Caffeic acid, caffeic acid] | effective | 191 | Cell toxicity (MDCK cells): exhibited cell toxicities; Cell survival rate of infected cells at 300 μg/mL [1]: dropped to nearly zero; Effect on cell survival of infected cells at 100 μg/mL [1]: effective
5 | O=C(O)/C=C/c1ccc(O)cc1 [p-coumaric acid] | did not have any cell surviving activity |  | 
6 | O=C(/C=C/c1ccc(O)c(O)c1)O[C@@H]1[C@H](O)C[C@@](O)(C(=O)O)C[C@H]1OC(=O)/C=C/c1ccc(O)c(O)c1 [3,4-Dicaffeoylquinic acid] | effective | 81.1 ± 2.9 | EC50 ([1]; read-out: EC50 value on the cell survival): 41.9 µg/mL
7 | O=C(/C=C/c1ccc(O)c(O)c1)O[C@@H]1C[C@](O)(C(=O)O)C[C@@H](O)[C@H]1O [Chlorogenic acid] | effective | 342 | Cell toxicity (MDCK cells): exhibited cell toxicities; Cell survival rate of infected cells at 300 μg/mL [1]: dropped to nearly zero; Effect on cell survival of infected cells at 100 μg/mL [1]: effective
8 | O=C(/C=C/c1ccc(O)c(O)c1)O[C@@H]1C[C@](O)(C(=O)O)C[C@@H](OC(=O)/C=C/c2ccc(O)c(O)c2)[C@H]1O [3,5-Dicaffeoylquinic acid, 3,5-dicaffeoylquinic acid] | effective | 208 | 
9 | O=C(/C=C/c1ccc(O)c(O)c1)O[C@H]1[C@H](O)C[C@](O)(C(=O)O)C[C@H]1OC(=O)/C=C/c1ccc(O)c(O)c1 [4,5-Dicaffeoylquinic acid, 4,5-dicaffeoylquinic acid] | effective | 281 | 
10 | NC(=O)c1ncn([C@@H]2O[C@H](CO)[C@@H](O)[C@H]2O)n1 [ribavirin] |  |  | Quantity of mRNA for HA relative to mRNA for GAPDH (influenza virus): less than 10%
11 | CC(C)=CCc1cc(/C=C/C(=O)O)ccc1O [drupanin] | did not have any cell surviving activity |  | 
12 | O=C(O)[C@]1(O)C[C@@H](O)[C@@H](O)[C@H](O)C1 [Quinic acid, quinic acid] | ineffective | > 1560 | 
